Results reported in patent EP0551518A1, “QUINOLINECARBOXYLIC ACID DERIVATIVE” (NIPPON SHINYAKU COMPANY, LIMITED, priority 1990, dated 1992).
Values after ≈ are worked out from the molar mass of the structure shown.

Columns and labels:
Type in all cases: cell-based
[1] = tested on: Staphylococcus aureus OWPH 1984 (MRSA); assay: Determination of minimal inhibitory concentration of growth (MIC)-1, agar plate dilution method; details: Staphylococcus aureus, MRSA, 18 h, Staphylococcus aureus OWPH 1984 (MRSA); agar plate dilution, 10⁶ CFU/ml, 37°C, 18 hours; read-out: MIC
In short: (§1)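 Inoculum: 18 h bouillon culture at 37°C, diluted to 10⁶ CFU/ml in the same medium. Applied with a microplanter to sensitivity assay agar containing test drug; 18 h at 37°C, then MIC read. Japan Society of Chemotherapy protocol.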

[2] = tested on: Pseudomonas aeruginosa IFO 3445; assay: as above; details: Pseudomonas aeruginosa, IFO3445, 18 h, Pseudomonas aeruginosa IFO 3445; agar plate dilution, 10⁶ CFU/ml, 37°C, 18 hours; read-out: MIC
In short: as §1

[3] = tested on: Staphylococcus aureus OWPH 2125 (MRSA, PCA^r ); assay: as above; details: Staphylococcus aureus, MRSA, 18 h, Staphylococcus aureus OWPH 2125 (MRSA, PCA^r); agar plate dilution, 10⁶ CFU/ml, 37°C, 18 hours; read-out: MIC
In short: as §1

[4] = tested on: Staphylococcus epider-midis IFO 12993; assay: as above; details: Staphylococcus, IFO12993, 18 h, Staphylococcus epider-midis IFO 12993; agar plate dilution, 10⁶ CFU/ml, 37°C, 18 hours; read-out: MIC
In short: as §1

Proteus vulgaris HX-19 = assay: as above; details: Proteus vulgaris, HX19, 18 h, Proteus vulgaris HX-19; agar plate dilution, 10⁶ CFU/ml, 37°C, 18 hours; read-out: MIC
In short: as §1

Escherichia coli KC-14 = assay: as above; details: Escherichia coli, KC14, 18 h, 10⁶ CFU/ml, 37°C, read-out: MIC
In short: as §1

[5] = tested on: Bacillus subtilis ATCC 6633; assay: as above; details: ATCC6633; Bacillus subtilis ATCC 6633; agar plate dilution, 10⁶ CFU/ml, 37°C, 18 hours; read-out: MIC
In short: as §1

[6] = tested on: Staphylococcus aureus Smith; assay: as above; details: Staphylococcus aureus Smith; agar plate dilution, 10⁶ CFU/ml, 37°C, 18 hours; read-out: MIC
In short: as §1

[7] = tested on: Micrococcus luteus ATCC 9341; assay: as above; details: ATCC9341; Micrococcus luteus ATCC 9341; agar plate dilution, 10⁶ CFU/ml, 37°C, 18 hours; read-out: MIC
In short: as §1

[8] = tested on: Staphylococcus aureus 209-P JC-1; assay: as above; details: Staphylococcus aureus, 209P, 18 h, Staphylococcus aureus 209-P JC-1; agar plate dilution, 10⁶ CFU/ml, 37°C, 18 hours; read-out: MIC
In short: as §1

[9] = tested on: Enterococcus faecalis ATCC 29212; assay: as above; details: ATCC29212; Enterococcus faecalis ATCC 29212; agar plate dilution, 10⁶ CFU/ml, 37°C, 18 hours; read-out: MIC
In short: as §1

S. aureus OWPH 2128 = assay: Determination of minimal inhibitory concentration (MIC)-2, new quinolone-resistant MRSA; details: Staphylococcus aureus, OWPH2128, 18 h; S. aureus OWPH 2128, new quinolone-resistant and methicillin-resistant; same procedure as Test Example 1
Description: (§2) Method: MIC was determined by the agar plate dilution method in accordance with the standard protocol of Japan Society of Chemotherapy (cf. Chemotherapy 29 (1), 76-79, 1981). Each bacterial culture obtained by 18-hour incubation in a sensitivity assay bouillon medium at 37°C was diluted to 10⁶ CFU/ml with the same medium. Using a microplanter, a sensitivity assay agar medium containing the test drug was inoculated with the diluted culture and incubated at 37°C for 18 hours. The MIC value was then determined. As reference drugs, 6-fluoro-1-methyl-4-oxo-7-(1-piperazinyl)-4H-[1,3]thiazeto[3,2-a]quinoline-3-carboxylic acid (referred to as control), ciprofloxacin (CPFX) and ofloxacin (OFLX) were used.
(§3) The antibacterial activity of the compounds obtained in Example 4, Example 25 and Example 26 of the present invention was assayed by the same procedure as in Test Example 1. As reference drugs, 6-fluoro-1-methyl-4-oxo-7-(1-piperazinyl)-4H-[1,3]-thiazeto[3,2-a]quinoline-3-carboxylic acid (referred to as Control), norfloxacin (NFLX) and tosufloxacin (TFLX) were used.

S. aureus Sh 2 = assay: as above; details: Staphylococcus aureus, SH2, 18 h; S. aureus Sh 2, new quinolone-resistant and methicillin-resistant; same procedure as Test Example 1
Description: as §2, §3

S. aureus OWPH 2134 = assay: as above; details: Staphylococcus aureus, OWPH2134, 18 h; S. aureus OWPH 2134, new quinolone-resistant and methicillin-resistant; same procedure as Test Example 1
Description: as §2, §3

S. aureus Sh 8 = assay: as above; details: Staphylococcus aureus, SH8, 18 h; S. aureus Sh 8, new quinolone-resistant and methicillin-resistant; same procedure as Test Example 1
Description: as §2, §3

S. aureus OWPH 2133 = assay: as above; details: Staphylococcus aureus, OWPH2133, 18 h; S. aureus OWPH 2133, new quinolone-resistant and methicillin-resistant; same procedure as Test Example 1
Description: as §2, §3

S. aureus OWPH 2127 = assay: as above; details: Staphylococcus aureus, OWPH2127, 18 h; S. aureus OWPH 2127, new quinolone-resistant and methicillin-resistant; same procedure as Test Example 1
Description: as §2, §3

S. aureus OWPH 1773 = assay: as above; details: Staphylococcus aureus, OWPH1773, 18 h; S. aureus OWPH 1773, new quinolone-resistant and methicillin-resistant; same procedure as Test Example 1
Description: as §2, §3

S. aureus Sh 47 = assay: as above; details: Staphylococcus aureus, SH47, 18 h; S. aureus Sh 47, new quinolone-resistant and methicillin-resistant; same procedure as Test Example 1
Description: as §2, §3

S. aureus Sh 44 = assay: as above; details: Staphylococcus aureus, SH44, 18 h; S. aureus Sh 44, new quinolone-resistant and methicillin-resistant; same procedure as Test Example 1
Description: as §2, §3

S. aureus OWPH 2124 = assay: as above; details: Staphylococcus aureus, OWPH2124, 18 h; S. aureus OWPH 2124, new quinolone-resistant and methicillin-resistant; same procedure as Test Example 1
Description: as §2, §3

S. aureus OWPH 1786 = assay: as above; details: Staphylococcus aureus, OWPH1786, 18 h; S. aureus OWPH 1786, new quinolone-resistant and methicillin-resistant; same procedure as Test Example 1
Description: as §2, §3

S. aureus OWPH 1792 = assay: as above; details: Staphylococcus aureus, OWPH1792, 18 h; S. aureus OWPH 1792, new quinolone-resistant and methicillin-resistant; same procedure as Test Example 1
Description: as §2, §3

S. aureus Sh 54 = assay: as above; details: Staphylococcus aureus, SH54, 18 h; S. aureus Sh 54, new quinolone-resistant and methicillin-resistant; same procedure as Test Example 1
Description: as §2, §3

S. aureus OWPH 1796 = assay: as above; details: Staphylococcus aureus, OWPH1796, 18 h; S. aureus OWPH 1796, new quinolone-resistant and methicillin-resistant; same procedure as Test Example 1
Description: as §2, §3

S. aureus OWPH 1799 = assay: as above; details: Staphylococcus aureus, OWPH1799, 18 h; S. aureus OWPH 1799, new quinolone-resistant and methicillin-resistant; same procedure as Test Example 1
Description: as §2, §3

S. aureus OWPH 1770 = assay: as above; details: Staphylococcus aureus, OWPH1770, 18 h; S. aureus OWPH 1770, new quinolone-resistant and methicillin-resistant; same procedure as Test Example 1
Description: as §2, §3

S. aureus OWPH 1793 = assay: as above; details: Staphylococcus aureus, OWPH1793, 18 h; S. aureus OWPH 1793, new quinolone-resistant and methicillin-resistant; same procedure as Test Example 1
Description: as §2, §3

MIC [1]: 0.012 µg/mL (≈ 0.0321 µM)
MIC [2]: 0.2 µg/mL (≈ 0.534 µM)
MIC [3]: 0.012 µg/mL (≈ 0.0321 µM)
MIC [4]: 0.006 µg/mL (≈ 0.016 µM)
MIC (Proteus vulgaris HX-19): 0.025 µg/mL (≈ 0.0668 µM)
MIC (Escherichia coli KC-14): 0.05 µg/mL (≈ 0.134 µM)
MIC [5]: ≤ 0.006 µg/mL
MIC [6]: ≤ 0.006 µg/mL
MIC [7]: 0.2 µg/mL (≈ 0.534 µM)
MIC [8]: ≤ 0.006 µg/mL
MIC [9]: 0.05 µg/mL (≈ 0.134 µM)
MIC (S. aureus OWPH 2128): 0.39 µg/mL (≈ 1.04 µM)
MIC (S. aureus Sh 2): 0.39 µg/mL (≈ 1.04 µM)
MIC (S. aureus OWPH 2134): 0.2 µg/mL (≈ 0.534 µM)
MIC (S. aureus Sh 8): 0.2 µg/mL (≈ 0.534 µM)
MIC (S. aureus OWPH 2133): 0.39 µg/mL (≈ 1.04 µM)
MIC (S. aureus OWPH 2127): 0.39 µg/mL (≈ 1.04 µM)
MIC (S. aureus OWPH 1773): 0.2 µg/mL (≈ 0.534 µM)
MIC (S. aureus Sh 47): 0.39 µg/mL (≈ 1.04 µM)
MIC (S. aureus Sh 44): 0.2 µg/mL (≈ 0.534 µM)
MIC (S. aureus OWPH 2124): 0.39 µg/mL (≈ 1.04 µM)
MIC (S. aureus OWPH 1786): 0.39 µg/mL (≈ 1.04 µM)
MIC (S. aureus OWPH 1792): 0.39 µg/mL (≈ 1.04 µM)
MIC (S. aureus Sh 54): 0.2 µg/mL (≈ 0.534 µM)
MIC (S. aureus OWPH 1796): 0.2 µg/mL (≈ 0.534 µM)
MIC (S. aureus OWPH 1799): 0.39 µg/mL (≈ 1.04 µM)
MIC (S. aureus OWPH 1770): 0.1 µg/mL (≈ 0.267 µM)
MIC (S. aureus OWPH 1793): 0.39 µg/mL (≈ 1.04 µM)
Compound: CC1Sc2c(C(=O)O)c(=O)c3cc(F)c(-c4ccc(N)cc4)c(F)c3n21 (stereo not shown) [Example 25, 7-(4-Aminophenyl)-6,8-difluoro-1-methyl-4-oxo-4H-[1,3]thiazeto[3,2-a]quinoline-3-carboxylic acid]
